These results are taken from the METLIN SMRT retention time set (Domingo-Almenara et al. 2019).

Structures are written as SMILES.

This series in a line: gradient 5% acetonitrile 3 min, to 50% in 2 min, to 85% in 15 min, held 3 min, 100 µL/min. The conditions noted are these: column: Zorbax Extend-C18 2.1 x 50 mm; eluents: water / acetonitrile, 0.1% formic acid. Summed up:
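Retention time was recorded from adduct peaks, which were picked computationally and each inspected manually. Pure standards ran in mixtures of ~100 molecules on HPLC coupled to a quadrupole time-of-flight mass spectrometer, in positive and negative ionization mode, through a Zorbax Extend-C18 column (2.1 × 50 mm, 1.8 μm) at 100 μL/min. Eluents were water and acetonitrile, each with 0.1% formic acid.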
As to `CCOc1ccccc1NC(=O)c1cnn(-c2ccc(Br)cc2)c1`, the RP-LC retention time was found to be 1120 s.
Regarding `Cc1ccccc1-c1noc(Cc2nnc(-c3ccc(F)cc3)o2)n1`, the RP-LC retention time was 1040 s.
The value for `CCC[C@H](NC(=O)/C(C#N)=C/c1cccc(Br)n1)c1ccccc1` was 684 s; that for `Cc1cccc(NS(=O)(=O)c2cc(-c3[nH]ncc3C(=O)N3CCCC3)oc2C)c1` was 716 s; that for `CCOC(=O)C1CCCN(C(=O)C2CCN(S(=O)(=O)c3ccc4c(ccn4CC)c3)CC2)C1` (stereo not drawn) was 849 s.
The value for `COc1ccc(NC(=O)Nc2ccc(-c3cn4cccnc4n3)cc2)cc1` was 616 s.
`O=C(OCc1cc(-c2cccs2)on1)c1ccc(Cn2ccnc2)cc1` registered an RP-LC retention time of 600 s.
`O=C(NC1CCCCC1)C1CCN(S(=O)(=O)c2ccc3[nH]c(=O)sc3c2)CC1` had an RP-LC retention time of 765 s.
In turn, `O=C(N[C@H]1C[C@@H]2C[C@H]1N(C(=O)NCCc1ccccc1)C2)c1ccccc1` returned an RP-LC retention time of 740 s.
Regarding `O=C(NC1CCCCCC1)c1ccc2c(c1)nc1n2CCN(c2ccccc2)C1=O`, the RP-LC retention time was determined as 804 s.
The result for `COc1cccc(NC(=O)N2CCC[C@@H]2C(=O)NCc2csc(-c3cccs3)n2)c1` reads 773 s; that for `CCCc1nc(-c2cc3ccccc3nc2N2CCN(C)CC2)no1`, 671 s; that for `Cc1ccc(N(C)S(=O)(=O)c2cc3n(c2)CCCN(C(C)C)C3=O)cc1`, 865 s.
Turning to `Cc1occc1-c1nnc2sc(COc3ccc(Cl)cc3)nn12`, the RP-LC retention time stood at 1000 s.
The result for `O=C(Cc1cccs1)N1CCc2cc(-c3ccno3)ccc21` reads 919 s.
The result for `O=C(O)[C@@H]1CN(Cc2ccccc2)C[C@@H]1C(=O)N1CCc2ccccc21` reads 641 s.
`CCN(CC)C(=O)c1ccc2c(c1)N(CC(=O)NCc1ccco1)C(=O)C1CCCCN21` (stereo not drawn) registered an RP-LC retention time of 783 s.
For the compound `COC(=O)CN1CN(c2ccc(C)cc2)c2ncccc2S1(=O)=O`, the RP-LC retention time was 894 s.
The value for `O=C(C1CC=CC1)N1CCC2(CC1)NCCc1c2[nH]c2ccccc12` was 643 s; that for `CC(=O)Nc1ccc(S(=O)(=O)N2CCCCC2c2cccnc2)cc1` (stereo not drawn) was 593 s.
As for `Oc1c(C(c2ccc(F)cc2)N2CCN(c3cccc(Cl)c3)CC2)sc2ncnn12` (stereo not drawn), the RP-LC retention time came to 852 s.
Consider `COc1cccc(CNC(=O)N2CCN(Cc3nc4ccccc4o3)CC2)c1`, for which the RP-LC retention time is 654 s.
The value for `O=C(Cn1ncccc1=O)N1CCN(c2ccc(-c3ccccn3)nn2)CC1` was 537 s; that for `CC(C)c1nnc2n1C(C(=O)NCC(F)F)CCCC2` (stereo not drawn) was 580 s.
The value for `COc1cccc(-c2nnc(-c3ccc(-n4ccnc4)nc3)o2)c1` was 654 s; that for `COc1ccc(OC)c(-c2csc(-c3nnn(-c4ccccc4)c3N)n2)c1` was 1080 s; that for `Cc1cc(C(=O)Nc2ccc3scnc3c2)no1` was 645 s.
The result for `COCCCNC(=O)CCc1cc2cc(OC)ccc2[nH]c1=O` reads 611 s; that for `CCc1nc(OCC(=O)Nc2ccc(Cl)cc2C(F)(F)F)c2ccccc2n1`, 942 s.
For the compound `CNC(=O)[C@@H]1C[C@H](Oc2cccnc2)CN1C(=O)c1ccc2ncccc2c1`, the RP-LC retention time is 510 s.
Compound `CCOC(=O)C1=C(C)NC(=O)NC1c1ccc(-c2cccc([N+](=O)[O-])c2)o1` (stereo not drawn) returned an RP-LC retention time of 761 s.
The result for `Fc1cccc(-c2noc(-c3ccc(N4CCN(C5CCCCC5)CC4)nc3)n2)c1` reads 814 s; that for `COc1cccc(-c2nc(-c3ccc4c(c3)ncn4CCN3CCCCC3)no2)c1`, 657 s.
